{"source": "patent US4882349A", "about": "“Pyrrolacetic amides having antiinflammatory activity” (priority 1982, dated 1989)", "key": {"[1]": {"system": "cough provoked by mechanical stimulation of the tracheal bifurcation mucosa", "assay": "antitussive activity, mechanically provoked coughing", "assay_type": "in vivo, albino Guinea-pigs", "settings": "1 h after administration", "protocol": "The antitussive effect on albino Guinea-pigs weighing 300 g was evaluated using the method described by Y. Kase (Selected Pharmacological Testing Methods, p.363, Marcel Dekker Inc., New York, 1968). Each dose was tested in a group of animals with a Y cannula inserted into the trachea. In order to provoke coughing, the mucosa of the tracheal bifurcation was mechanically stimulated by insertion of a wild boar's hair through an opening in the cannula, while the other opening was connected to a kymograph to plot the amplitude and/or frequency. The reduction in the number of coughs was evaluated at one hour after administration of the compounds under examination by following the plottings for twenty minutes and comparing the response of the control animals."}, "[2]": {"system": "mucus secreted by the respiratory airway", "assay": "antisecretory activity, respiratory mucus secretion", "assay_type": "in vivo, albino male New Zealand rabbits", "settings": "vs control group", "protocol": "The experiment was carried out in accordance with the method described by Y. Kase (Folia Pharmacol. Jap. 73: 605, 1977) for the purpose of investigating whether or not the compounds under examination determine changes in the volume of the mucus secreted by the respiratory airway. Groups of four albino male New Zealand rabbits (mean weight: 2.5 kg) were used for testing each dose per single group. The animals were anesthetized with urethane (1.1 g/ks b.w.) via the intraperitoneal route and a Y cannula was inserted into the trachea. In order to stimulate mucous secretion a humidifier was connected to the cannula permitting the animals to spontaneously breathe air with 100% humidity at a constant temperature of 39° C. The secreted mucus was collected through another opening in the cannula and measured at three and six hours after administration of the compounds under examination or of the vehicle alone administered in the order of […] (controls). Calculation of the increase or decrease in mucous secretion was based upon the percentage differences between the groups treated with the compounds under examination and the control group. Table VII gives the percentage differences in mucous secretion, and the tested compounds with relative doses and routes of administration."}, "[3]": {"system": "phenyl-p-quinone-induced writhing (abdominal contractions)", "assay": "phenylquinone-induced writhing test (analgesic activity), compound given 30 min before phenyl-p-quinone", "assay_type": "in vivo, male Wistar rats", "protocol": "Male Wistar rats weighing 110±5 g were caged for 10 days at 22±1° C. and given a balanced diet with free access to water. Twenty-four hours before the experiment the animals were randomized into groups of 10 and fasted for 14 hours but with free access to water. Each dose was tested in 3 groups of rats. Thirty minutes following administration either orally or parenterally of the products to be tested and the vehicle alone (0.5% carboxymethyl-cellulose in physiological saline) in the control animals, each rat was given 2 ml of a 5% absolute ethanol aqueous solution containing 0.36% of phenyl-p-quinone (Sigma Chemical Company) in order to provoke writhings. Fifteen minutes after administration of phenyl-p-quinone the number of contractions were counted for 20 minutes. The inhibiting effect of the compounds under examination on the abdominal contractions induced by phenyl-p-quinone was calculated by the following formula: % protection= [formula]\nTable V lists the tested compounds, doses, routes of administration and their efficacy expressed as percentage of protection, taking into account that phenyl-p-quinone was administered thirty minutes after the compounds."}, "[4]": {"system": "carrageenin-induced oedema", "assay": "carrageenin-induced oedema test (anti-inflammatory activity)", "assay_type": "in vivo, albino male Wistar rats", "protocol": "This effect was evaluated by means of an experimental model reproducing acute inflammation: for this purpose the carrageenin- induced oedema test was employed following the method described by C.\nAlbino male Wistar rats weighing 140-160 g were caged for 10 days at 22±1° C. and given a balanced diet and water ad libitum. Eighteen hours before the experiment the animals were randomized into groups of ten and fasted but with free access to water. Each dose was tested in three groups of rats. Each compound was given either orally, by gavage, or parenterally--intraperitoneal injection--administering as follows:\ncontrols: 0.5% carboxymethylcellulose suspension in physiological saline, 10 ml/kg\ntreated: suspension of the compounds to be tested in the same vehicle and at the same volume (10 ml/kg) used for the controls at the doses specified below.\nOne hour after administration of the compounds and vehicle, in order to provoke the oedema for determining the protective effect of the substances under examination, each rat received, by subcutaneous injection into the plantar surface of the left paw, 0.1 ml of 1% sterile carrageenin suspension."}}}
{"smiles": "Cc1ccc(C(=O)c2ccc(CC(=O)NCC(=O)O)n2C)cc1", "note": "[Compound 1-c, 1-methyl-5-p-toluoylpyrrole-2-acetamidoacetic acid]", "values": [{"measurement": "% inhibition, cough amplitude", "setting": "[1]; 50 mg/Kg i.p.", "result": 10, "unit": "%"}, {"measurement": "% inhibition, cough frequency", "setting": "[1]; 50 mg/Kg i.p.", "result": 25, "unit": "%"}, {"measurement": "% inhibition, cough amplitude", "setting": "[1]; 50 mg/Kg per os", "result": 12, "unit": "%"}, {"measurement": "% inhibition, cough frequency", "setting": "[1]; 50 mg/Kg per os", "result": 20, "unit": "%"}, {"measurement": "% inhibition, cough amplitude", "setting": "[1]; 75 mg/Kg i.p.", "result": 15, "unit": "%"}, {"measurement": "% inhibition, cough frequency", "setting": "[1]; 75 mg/Kg i.p.", "result": 27, "unit": "%"}, {"measurement": "% inhibition, cough amplitude", "setting": "[1]; 75 mg/Kg per os", "result": 20, "unit": "%"}, {"measurement": "% inhibition, cough frequency", "setting": "[1]; 75 mg/Kg per os", "result": 22, "unit": "%"}, {"measurement": "% inhibition, cough amplitude", "setting": "[1]; 100 mg/Kg i.p.", "result": 40, "unit": "%"}, {"measurement": "% inhibition, cough frequency", "setting": "[1]; 100 mg/Kg i.p.", "result": 51, "unit": "%"}, {"measurement": "% inhibition, cough amplitude", "setting": "[1]; 100 mg/Kg per os", "result": 38, "unit": "%"}, {"measurement": "% inhibition, cough frequency", "setting": "[1]; 100 mg/Kg per os", "result": 45, "unit": "%"}, {"measurement": "% difference in mucus secretion", "setting": "[2]; 50 mg/Kg i.p., 3 h", "result": 0.0, "unit": "%"}, {"measurement": "% difference in mucus secretion", "setting": "[2]; 50 mg/Kg i.p., 6 h", "result": 0.0, "unit": "%"}, {"measurement": "% difference in mucus secretion", "setting": "[2]; 50 mg/Kg per os, 3 h", "result": 0.0, "unit": "%"}, {"measurement": "% difference in mucus secretion", "setting": "[2]; 50 mg/Kg per os, 6 h", "result": "+6%"}, {"measurement": "% difference in mucus secretion", "setting": "[2]; 75 mg/Kg i.p., 3 h", "result": -12, "unit": "%"}, {"measurement": "% difference in mucus secretion", "setting": "[2]; 75 mg/Kg i.p., 6 h", "result": -7, "unit": "%"}, {"measurement": "% difference in mucus secretion", "setting": "[2]; 75 mg/Kg per os, 3 h", "result": -10, "unit": "%"}, {"measurement": "% difference in mucus secretion", "setting": "[2]; 75 mg/Kg per os, 6 h", "result": -8, "unit": "%"}, {"measurement": "% difference in mucus secretion", "setting": "[2]; 100 mg/Kg i.p., 3 h", "result": -37, "unit": "%"}, {"measurement": "% difference in mucus secretion", "setting": "[2]; 100 mg/Kg i.p., 6 h", "result": -25, "unit": "%"}, {"measurement": "% difference in mucus secretion", "setting": "[2]; 100 mg/Kg per os, 3 h", "result": -35, "unit": "%"}, {"measurement": "% difference in mucus secretion", "setting": "[2]; 100 mg/Kg per os, 6 h", "result": -22, "unit": "%"}, {"measurement": "% Protection", "setting": "[3]; 5 mg/Kg i.p.", "result": 27.1, "unit": "%"}, {"measurement": "% Protection", "setting": "[3]; 5 mg/Kg per os", "result": 25.3, "unit": "%"}, {"measurement": "% Protection", "setting": "[3]; 10 mg/Kg i.p.", "result": 46.3, "unit": "%"}, {"measurement": "% Protection", "setting": "[3]; 10 mg/Kg per os", "result": 49.0, "unit": "%"}, {"measurement": "% Protection", "setting": "[3]; 20 mg/Kg i.p.", "result": 82.0, "unit": "%"}, {"measurement": "% Protection", "setting": "[3]; 20 mg/Kg per os", "result": 85.1, "unit": "%"}, {"measurement": "oedema % inhibition", "setting": "[4]; 25 mg/Kg per os, 2 h", "result": "38,6%"}, {"measurement": "oedema % inhibition", "setting": "[4]; 25 mg/Kg per os, 4 h", "result": "39,1%"}, {"measurement": "oedema % inhibition", "setting": "[4]; 25 mg/Kg per os, 6 h", "result": 37.2, "unit": "%"}, {"measurement": "oedema % inhibition", "setting": "[4]; 25 mg/Kg per os, 24 h", "result": 12.1, "unit": "%"}, {"measurement": "oedema % inhibition", "setting": "[4]; 25 mg/Kg per os, 48 h", "result": 0.0, "unit": "%"}, {"measurement": "oedema % inhibition", "setting": "[4]; 25 mg/Kg per os, 72 h", "result": 0.0, "unit": "%"}, {"measurement": "oedema % inhibition", "setting": "[4]; 25 mg/Kg, Table IV (route not given), 2 h", "result": 40.0, "unit": "%"}, {"measurement": "oedema % inhibition", "setting": "[4]; 25 mg/Kg, Table IV (route not given), 4 h", "result": 44.8, "unit": "%"}, {"measurement": "oedema % inhibition", "setting": "[4]; 25 mg/Kg, Table IV (route not given), 6 h", "result": 45.0, "unit": "%"}, {"measurement": "oedema % inhibition", "setting": "[4]; 25 mg/Kg, Table IV (route not given), 24 h", "result": 9.0, "unit": "%"}, {"measurement": "oedema % inhibition", "setting": "[4]; 25 mg/Kg, Table IV (route not given), 48 h", "result": 0.0, "unit": "%"}, {"measurement": "oedema % inhibition", "setting": "[4]; 25 mg/Kg, Table IV (route not given), 72 h", "result": 0.0, "unit": "%"}, {"measurement": "oedema % inhibition", "setting": "[4]; 50 mg/Kg per os, 2 h", "result": 51.8, "unit": "%"}, {"measurement": "oedema % inhibition", "setting": "[4]; 50 mg/Kg per os, 4 h", "result": 58.9, "unit": "%"}, {"measurement": "oedema % inhibition", "setting": "[4]; 50 mg/Kg per os, 6 h", "result": 60.4, "unit": "%"}, {"measurement": "oedema % inhibition", "setting": "[4]; 50 mg/Kg per os, 24 h", "result": 18.7, "unit": "%"}, {"measurement": "oedema % inhibition", "setting": "[4]; 50 mg/Kg per os, 48 h", "result": 0.0, "unit": "%"}, {"measurement": "oedema % inhibition", "setting": "[4]; 50 mg/Kg per os, 72 h", "result": 0.0, "unit": "%"}, {"measurement": "oedema % inhibition", "setting": "[4]; 50 mg/Kg, Table IV (route not given), 2 h", "result": 55.0, "unit": "%"}, {"measurement": "oedema % inhibition", "setting": "[4]; 50 mg/Kg, Table IV (route not given), 4 h", "result": 64.0, "unit": "%"}, {"measurement": "oedema % inhibition", "setting": "[4]; 50 mg/Kg, Table IV (route not given), 6 h", "result": 65.4, "unit": "%"}, {"measurement": "oedema % inhibition", "setting": "[4]; 50 mg/Kg, Table IV (route not given), 24 h", "result": 20.0, "unit": "%"}, {"measurement": "oedema % inhibition", "setting": "[4]; 50 mg/Kg, Table IV (route not given), 48 h", "result": 8.0, "unit": "%"}, {"measurement": "oedema % inhibition", "setting": "[4]; 50 mg/Kg, Table IV (route not given), 72 h", "result": 0.0, "unit": "%"}, {"measurement": "oedema % inhibition", "setting": "[4]; 100 mg/Kg per os, 2 h", "result": 69.0, "unit": "%"}, {"measurement": "oedema % inhibition", "setting": "[4]; 100 mg/Kg per os, 4 h", "result": 70.1, "unit": "%"}, {"measurement": "oedema % inhibition", "setting": "[4]; 100 mg/Kg per os, 6 h", "result": 67.0, "unit": "%"}, {"measurement": "oedema % inhibition", "setting": "[4]; 100 mg/Kg per os, 24 h", "result": 26.0, "unit": "%"}, {"measurement": "oedema % inhibition", "setting": "[4]; 100 mg/Kg per os, 48 h", "result": 10.0, "unit": "%"}, {"measurement": "oedema % inhibition", "setting": "[4]; 100 mg/Kg per os, 72 h", "result": 0.0, "unit": "%"}, {"measurement": "oedema % inhibition", "setting": "[4]; 100 mg/Kg, Table IV (route not given), 2 h", "result": 74.8, "unit": "%"}, {"measurement": "oedema % inhibition", "setting": "[4]; 100 mg/Kg, Table IV (route not given), 4 h", "result": 77.5, "unit": "%"}, {"measurement": "oedema % inhibition", "setting": "[4]; 100 mg/Kg, Table IV (route not given), 6 h", "result": 74.0, "unit": "%"}, {"measurement": "oedema % inhibition", "setting": "[4]; 100 mg/Kg, Table IV (route not given), 24 h", "result": 30.4, "unit": "%"}, {"measurement": "oedema % inhibition", "setting": "[4]; 100 mg/Kg, Table IV (route not given), 48 h", "result": 12.0, "unit": "%"}, {"measurement": "oedema % inhibition", "setting": "[4]; 100 mg/Kg, Table IV (route not given), 72 h", "result": 0.0, "unit": "%"}]}
